Molecular target: T1, Broad substrate specificity ATP-binding cassette transporter ABCG2 (Homo sapiens, UniProt Q9UNQ0)
T1 sequence (Q9UNQ0 whole entry): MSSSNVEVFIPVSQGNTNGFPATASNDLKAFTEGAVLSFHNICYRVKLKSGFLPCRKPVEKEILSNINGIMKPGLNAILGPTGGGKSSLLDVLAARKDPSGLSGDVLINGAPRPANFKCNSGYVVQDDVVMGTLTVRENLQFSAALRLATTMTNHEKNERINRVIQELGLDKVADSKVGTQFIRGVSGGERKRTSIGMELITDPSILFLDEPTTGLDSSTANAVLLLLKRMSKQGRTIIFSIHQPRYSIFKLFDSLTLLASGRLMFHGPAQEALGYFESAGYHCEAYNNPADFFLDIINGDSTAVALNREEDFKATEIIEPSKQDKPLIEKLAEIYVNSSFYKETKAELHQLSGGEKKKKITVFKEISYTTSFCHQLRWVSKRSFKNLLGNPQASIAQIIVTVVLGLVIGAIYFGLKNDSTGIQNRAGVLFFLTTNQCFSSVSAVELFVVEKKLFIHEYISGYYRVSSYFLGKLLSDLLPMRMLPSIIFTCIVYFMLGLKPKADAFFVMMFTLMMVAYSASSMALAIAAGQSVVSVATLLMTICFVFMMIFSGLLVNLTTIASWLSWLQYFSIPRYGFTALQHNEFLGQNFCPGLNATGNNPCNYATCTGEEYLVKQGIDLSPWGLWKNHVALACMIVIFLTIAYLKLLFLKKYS
Assay: Inhibition of ABCG2 (unknown origin) expressed in HEK293 cells assessed as increase in mitoxantrone accumulation incubated for 30 mins by flow cytometric method
Type: cell-based

Structure (SMILES) | EC50
COc1ccc2[nH]cc(CCNC(=O)c3cc(=O)c4c(OCc5cc(Br)cc(Br)c5)cccc4o3)c2c1 | 97 nM
COc1ccc2[nH]cc(CCNC(=O)c3cc(=O)c4c(OCc5ccc(Br)cc5Br)cccc4o3)c2c1 | 46 nM

From ChEMBL document CHEMBL4406873, “Optimization of the chromone scaffold through QSAR and docking studies: Identification of potent inhibitors of ABCG2” (Eur J Med Chem, 2019)
